Data as given in patent EP0942741B1, “LECTIN COMPOSITIONS AND USES THEREOF” (Alizyme Therapeutics Limited, priority 1996, dated 1997).

Assays:
[1] = Protection of rats from 5-FU chemotherapy by oral PHA (Example 7); format: in vivo
Procedure: (§1) 300mg of 5-fluorouracil was stirred in 14ml of distilled water. 1M NaOH was added slowly until the 5-FU had dissolved. The solution was made up to a final volume of 20 ml. The final pH of the solution was 8.3. A dose of 150 mg/kg body weight was administered to the animal by intraperitoneal injection. Immediately after the injection, the rats were offered 15 g of the control diet and food was available ad-libitum for the remainder of the experiment.
Four groups, each consisting of 5 rats were maintained on a precise dietary regime for a period of 7 days (Table 11).
Rats (approx […]) pre-dosed with PHA were offered 10 g of the control diet (Table 1) containing 10% lactalbumin. Each animal was given the equivalent of 20 mg PHA in 0.9% saline by gavage. Rats were offered control diet in two feeds at 1000 & 1700 hours. The amount of food given was strictly paired to the amount of diet eaten by the PHA pre-dosed animals. If the animals were immediately post-dosed with PHA, the lectin was administered two hours post 5-FU injection by gavage. Animals neither pre- or post dosed with PHA were administered with 1 ml 0.9% saline by gavage. After 3 days, animals in three of the groups were administered a dose of 150 mg/kg body weight 5-FU. Body weight of each animal was recorded daily and the average body weight calculated.
At the end of the experiment, the animals were sacrificed and then dissected. The dry weights of the major organs were recorded for each animal and the average weights calcurated.
After 7 days, blood was collected from the animals and both the key molecular and cellular components were analysed.

[2] = Dose range of PHA pre-dosing against 5-FU damage of the gastrointestinal tract (Example 8); format: in vivo, rats; settings: pair fed, 150 mg/kg/BW 5-FU, day 9
Procedure: as §1
3 groups of rats (5 rats per group) were fed on the standard diet (Table 1) and gavaged daily with either 200, 100 & 50 mg/kg/day PHA for 3 days. The food intake for each rat was recorded daily. A second set of 3 control groups of rats (5 rats per group) were fed on the standard diet and gavaged daily with 1 ml saline for 3 days. Each animal of the control group was pair fed to an animal in the PHA dosed groups. On the morning of the 4th day, each animal was injected with 150 mg/kg bodyweight 5-FU and then fed the standard diet for 6 days. 2 rats were fed on the standard diet ad libitum for 9 days. On the 9th day, the rats were killed and the animals dissected. After freezing in liquid nitrogen, the wet tissue weights were recorded.

[3] = Treatment 2: LA 3d, inject 5-FU (150 mg/kg i.p.), LA 4d, after 7 days
[4] = Treatment 2: LA 3d, inject 5-FU (150 mg/kg i.p.), LA 4d, blood after 7 days
[5] = Paired control 50 mg/kg/day: saline gavage
[6] = Paired control 100 mg/kg/day: saline gavage
[7] = Paired control 200 mg/kg/day: saline gavage

**Q.** With `O=c1[nH]cc(F)c(=O)[nH]1` [5-FU, 5-fluorouracil] as the compound, how does the “Caecum average dry weight” value [1, 3] read?
**A.** 99 ± 11 mg

**Q.** What about the “Colon average dry weight” value [1, 3] of the same compound?
**A.** 130 ± 11 mg

**Q.** What about the “Ileum average dry weight” value [1, 3] of the same compound?
**A.** 94 ± 11 mg

**Q.** What about the “Jejunum average dry weight” value [1, 3] of the same compound?
**A.** 90 ± 8 mg

**Q.** And the “Small intestine average dry weight” value [1, 3]?
**A.** 509 ± 55 mg

**Q.** And the “Stomach average dry weight” value [1, 3]?
**A.** 140 ± 7 mg

**Q.** What about the HGB [1, 4] of the same compound?
**A.** 12.7 g/100ml

**Q.** And the MCH [1, 4]?
**A.** 17.3 pg

**Q.** What about the MCHC [1, 4] of the same compound?
**A.** 34.3 g/100ml

**Q.** And the MCV [1, 4]?
**A.** 50.4 µm^3

**Q.** And the PLT [1, 4]?
**A.** 274x10^3 no/mm^3

**Q.** What about the WBC [1, 4] of the same compound?
**A.** 3x10^3 no/mm^3

**Q.** What about the fresh body weight ([1]; Treatment 2: LA 3d, inject 5-FU (150 mg/kg i.p.), LA 4d, column 1 of 8 (day not given)) of the same compound?
**A.** 102.5 g

**Q.** What about the fresh body weight ([1]; Treatment 2: LA 3d, inject 5-FU (150 mg/kg i.p.), LA 4d, column 2 of 8 (day not given)) of the same compound?
**A.** 99.9 g

**Q.** And the fresh body weight ([1]; Treatment 2: LA 3d, inject 5-FU (150 mg/kg i.p.), LA 4d, column 3 of 8 (day not given))?
**A.** 98.8 g

**Q.** What about the fresh body weight ([1]; Treatment 2: LA 3d, inject 5-FU (150 mg/kg i.p.), LA 4d, column 4 of 8 (day not given)) of the same compound?
**A.** 101.9 g

**Q.** And the fresh body weight ([1]; Treatment 2: LA 3d, inject 5-FU (150 mg/kg i.p.), LA 4d, column 5 of 8 (day not given))?
**A.** 108 g

**Q.** What about the fresh body weight ([1]; Treatment 2: LA 3d, inject 5-FU (150 mg/kg i.p.), LA 4d, column 6 of 8 (day not given)) of the same compound?
**A.** 110.2 g

**Q.** What about the fresh body weight ([1]; Treatment 2: LA 3d, inject 5-FU (150 mg/kg i.p.), LA 4d, column 7 of 8 (day not given)) of the same compound?
**A.** 107.9 g

**Q.** What about the fresh body weight ([1]; Treatment 2: LA 3d, inject 5-FU (150 mg/kg i.p.), LA 4d, column 8 of 8 (day not given)) of the same compound?
**A.** 106.2 g

**Q.** And the daily food intake ([1]; Treatment 2: LA 3d, inject 5-FU (150 mg/kg i.p.), LA 4d, day 1 (pair fed, before injection))?
**A.** 4.8 g

**Q.** And the daily food intake ([1]; Treatment 2: LA 3d, inject 5-FU (150 mg/kg i.p.), LA 4d, day 2 (pair fed, before injection))?
**A.** 6.22 g

**Q.** And the daily food intake ([1]; Treatment 2: LA 3d, inject 5-FU (150 mg/kg i.p.), LA 4d, day 3 (pair fed, before injection))?
**A.** 9.22 g

**Q.** And the daily food intake ([1]; Treatment 2: LA 3d, inject 5-FU (150 mg/kg i.p.), LA 4d, day 4)?
**A.** 11.3 g

**Q.** And the daily food intake ([1]; Treatment 2: LA 3d, inject 5-FU (150 mg/kg i.p.), LA 4d, day 5)?
**A.** 10.4 g

**Q.** What about the daily food intake ([1]; Treatment 2: LA 3d, inject 5-FU (150 mg/kg i.p.), LA 4d, day 6) of the same compound?
**A.** 6.8 g

**Q.** And the daily food intake ([1]; Treatment 2: LA 3d, inject 5-FU (150 mg/kg i.p.), LA 4d, day 7)?
**A.** 5.9 g

**Q.** What about the “reduction of small intestine dry weight” value ([1]; only lactalbumin in the diet, 5-FU 150 mg/kg) of the same compound?
**A.** ~50%

**Q.** And the Heum wet weight [2, 5]?
**A.** 722 mg

**Q.** And the Jejunum wet weight [2, 5]?
**A.** 761 mg

**Q.** What about the Heum wet weight [2, 6] of the same compound?
**A.** 747 mg

**Q.** What about the Jejunum wet weight [2, 6] of the same compound?
**A.** 783 mg

**Q.** What about the Heum wet weight [2, 7] of the same compound?
**A.** 753 mg

**Q.** What about the Jejunum wet weight [2, 7] of the same compound?
**A.** 848 mg
